Structures can show the parent of a compound that is named as a salt.
Assays:
NHE3 = biological target: T1, NHE3 (Homo sapiens, UniProt P48764); experiment: Recovery of intracellular pH (pHi) after acidification, BCECF fluorescence, NHE3; format: cell-based; details: inhibition of pH recovery after intracellular acidification; rate recorded for three minutes; BCECF-loaded cells
T1 sequence (P48764 1-834): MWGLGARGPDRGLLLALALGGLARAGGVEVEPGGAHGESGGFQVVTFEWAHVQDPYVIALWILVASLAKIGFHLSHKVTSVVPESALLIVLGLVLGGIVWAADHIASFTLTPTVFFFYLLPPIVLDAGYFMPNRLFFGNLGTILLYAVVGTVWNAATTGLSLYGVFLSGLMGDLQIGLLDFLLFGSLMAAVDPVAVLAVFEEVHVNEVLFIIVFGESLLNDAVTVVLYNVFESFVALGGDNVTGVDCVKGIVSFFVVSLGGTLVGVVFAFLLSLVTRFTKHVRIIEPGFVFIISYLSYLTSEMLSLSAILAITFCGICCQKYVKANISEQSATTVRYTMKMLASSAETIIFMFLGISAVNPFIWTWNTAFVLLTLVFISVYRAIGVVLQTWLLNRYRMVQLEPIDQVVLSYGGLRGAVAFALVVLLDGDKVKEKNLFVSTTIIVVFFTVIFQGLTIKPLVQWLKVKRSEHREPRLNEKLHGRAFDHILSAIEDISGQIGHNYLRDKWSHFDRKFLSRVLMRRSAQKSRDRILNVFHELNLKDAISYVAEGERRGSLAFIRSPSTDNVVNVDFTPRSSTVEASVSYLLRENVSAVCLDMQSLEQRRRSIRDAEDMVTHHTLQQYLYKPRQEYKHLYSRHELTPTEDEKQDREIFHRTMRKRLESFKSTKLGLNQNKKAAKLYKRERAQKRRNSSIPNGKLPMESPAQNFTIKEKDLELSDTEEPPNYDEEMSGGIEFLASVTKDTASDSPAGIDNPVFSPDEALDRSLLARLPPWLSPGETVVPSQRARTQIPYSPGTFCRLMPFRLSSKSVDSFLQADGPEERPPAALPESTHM
Method: In this test, the recovery in the intracellular pH (pHi) after an acidification is ascertained, which is initiated if the NHE is capable of functioning, even under bicarbonate-free conditions. For this purpose, the pHi was determined using the pH-sensitive fluorescent dye BCECF (Calbiochem, the precursor BCECF-AM is employed).
The cells were initially loaded with BCECF. The BCECF fluorescence was determined in a “Ratio Fluorescence Spectrometer” (Photon Technology International, South Brunswick, N.J., USA) at excitation wavelengths of 505 and 440 nm and an emission wavelength of 535 nm and converted into the pHi using calibration curves. The cells were incubated in NH4Cl buffer (pH 7.4) (NH4Cl buffer: 115 mM NaCl, 20 mM NH4Cl, 5 mM KCl, 1 mM CaCl2, 1 mM MgSO4, 20 mM Hepes, 5 mM glucose, 1 mg/ml BSA; a pH of 7.4 is adjusted with 1 M NaOH) even during the BCECF loading. The intracellular acidification was induced by adding 975 μl of an NH4Cl-free buffer (see below) to 25 μl aliquots of the cells incubated in NH4Cl buffer. The subsequent rate of pH recovery was recorded for two minutes with NHE1, five minutes with NHE2 and three minutes with NHE3. To calculate the inhibitory potency of the tested substances, the cells were initially investigated in buffers with which a complete or absolutely no pH recovery took place. For complete pH recovery (100%), the cells were incubated in Na^+-containing buffer (133.8 mM NaCl, 4.7 mM KCl, 1.25 mM CaCl2, 1.25 mM MgCl2, 0.97 mM Na2HPO4, 0.23 mM NaH2PO4, 5 mM Hepes, 5 mM glucose, a pH of 7.0 is adjusted with 1 M NaOH). To determine the 0% value, the cells were incubated in an Na^+-free buffer (133.8 mM choline chloride, 4.7 mM KCl, 1.25 mM CaCl2, 1.25 mM MgCl2, 0.97 mM K2HPO4, 0.23 mM KH2PO4, 5 mM Hepes, 5 mM glucose, a pH of 7.0 is adjusted with 1 M NaOH). The substances to be tested were made up in the Na^+-containing buffer. The recovery of the intracellular pH at each test concentration of a substance was expressed as a percentage of the maximum recovery. The IC50 value for the particular substance for the individual NHE subtypes was calculated from the pH recovery percentages using the Sigma-Plot program.

Structure (SMILES) | IC50 (NHE3) | melting point
CN1Cc2c(Cl)cc(Cl)cc2C(c2ccc(C(=O)O)cc2)C1 (stereo not shown) [Example 6, 4-(6,8-Dichloro-2-methyl-1,2,3,4-tetrahydro-isoquinolin-4-yl)-benzoic acid] | 0.67 µM | 
CC(=O)Nc1ccc(C2CN(C)Cc3c(Cl)cc(Cl)cc32)cc1 (stereo not shown) |  | 205 to 206 °C
CN1Cc2c(Cl)cc(Cl)cc2C(c2cccc(S(N)(=O)=O)c2)C1 (single isomer, unassigned; (+)) [Example 2b, (+)-3-(6,8-Dichloro-2-methyl-1,2,3,4-tetrahydro-isoquinolin-4-yl)-benzene-sulfonamide hydrochloride] | 0.026 µM | 
CN1Cc2c(Cl)cc(Cl)cc2C(c2ccc(Cl)c(S(N)(=O)=O)c2)C1 (stereo not shown) [Example 99] |  | 122 °C
CC(=O)Nc1ccc(C2CN(C)Cc3c(Cl)cc(Cl)cc32)cc1.Cl (stereo not shown) [Example 1a, N-[4-(6,8-Dichloro-2-methyl-1,2,3,4-tetrahydro-isoquinolin-4-yl)-phenyl]-acetamide-hydrochloride] | 0.075 µM | 125 °C (dec.)
CN1Cc2c(Cl)cc(Cl)cc2C(c2ccc(NS(C)(=O)=O)cc2)C1 (stereo not shown) [Example 48] | 0.349 µM | 
Cc1nc(S(=O)(=O)Nc2cccc(C3CN(C)Cc4c(Cl)cc(Cl)cc43)c2)cn1C (stereo not shown) [Example 97] | 0.308 µM | 
CCNC(=O)Nc1ccc(C2CN(C)Cc3c(Cl)cc(Cl)cc32)cc1 (stereo not shown) [Example 21, 1-[4-(6,8-Dichloro-2-methyl-1,2,3,4-tetrahydro-isoquinolin-4-yl)-phenyl]-3-ethylurea] | 0.814 µM | 218 to 220 °C
CN1Cc2c(Cl)cc(Cl)cc2C(c2cccc(NC(=O)C3CCN(S(C)(=O)=O)CC3)c2)C1 (stereo not shown) [Example 144] | 0.695 µM | 
CC(=O)Nc1ccc(C2CN(C)Cc3c(Cl)cc(Br)cc32)cc1 (stereo not shown) [Example 24, N-[4-(6-Bromo-8-chloro-2-methyl-1,2,3,4-tetrahydro-isoquinolin-4-yl)-phenyl]-acetamide] | 0.34 µM | 
CN1Cc2c(Cl)cc(Cl)cc2C(c2ccc(N)cc2)C1 (stereo not shown) [Example 17, 4-(6,8-Dichloro-2-methyl-1,2,3,4-tetrahydro-isoquinolin-4-yl)-phenylamine, Hydrochloride] | 0.049 µM | 
CN1Cc2c(Cl)cc(Cl)cc2C(c2cccc(NC(=O)N3CCCCC3)c2)C1 (stereo not shown) [Example 153] | 0.602 µM | 
CN1Cc2c(Cl)cc(Cl)cc2C(c2ccccc2N)C1 (stereo not shown) [Example 36, 2-(6,8-Dichloro-2-methyl-1,2,3,4-tetrahydro-isoquinolin-4-yl)-phenylamine] | 0.274 µM | 
CNC(=O)N(C)c1cccc(C2CN(C)Cc3c(Cl)cc(Cl)cc32)c1 (single isomer, unassigned; (+)) [Example 199] | 0.252 µM | 
CC(=O)Nc1ccc(C2CN(C)Cc3c(C)cc(C)cc32)cc1 (stereo not shown) [Example 23, N-[4-(2,6,8-Trimethyl-1,2,3,4-tetrahydro-isoquinolin-4-yl)-phenyl]-acetamide] | 1.51 µM | 
COC(=O)Nc1cccc(C2CN(C)Cc3c(Cl)cc(Cl)cc32)c1 (stereo not shown) [Example 207, [3-(6,8-Dichloro-2-methyl-1,2,3,4-tetrahydro-isoquinolin-4-yl)-phenyl]-carbamic acid methyl Ester—Hydrochloride Salt] | 0.186 µM | 
CN1Cc2c(Cl)cc(Cl)cc2C(c2ccc(NC(=O)c3cc[nH]c3)cc2)C1 (stereo not shown) [Example 119] | 0.682 µM | 
CN1Cc2c(Cl)cc(Cl)cc2C(c2ccc(NS(=O)(=O)C(F)(F)F)cc2)C1 (stereo not shown) [Example 87] | 0.418 µM | 
CN1Cc2c(Cl)cc(Cl)cc2C(c2ccc(S(N)(=O)=O)cc2)C1 (single isomer, unassigned; (+)) [Example 2a, (+)-4-(6,8-Dichloro-2-methyl-1,2,3,4-tetrahydro-isoquinolin-4-yl)-benzene-sulfonamide hydrochloride] | 0.082 µM | 

Further lines, with some results ahead:

IC50 (NHE3) | Structure (SMILES) | melting point
0.597 µM | CN1Cc2c(Cl)cc(Cl)cc2C(c2ccc(NC(=O)N3CCOCC3)cc2)C1 (stereo not shown) [Example 183] | 
0.215 µM | CCC(=O)Nc1cccc(C2CN(C)Cc3c(Cl)cc(Cl)cc32)c1 (stereo not shown) [Example 51] | 
0.73 µM | CNC(=S)Nc1ccccc1C1CN(C)Cc2c(Cl)cc(Cl)cc21 (stereo not shown) [Example 81, 1-[2-(6,8-Dichloro-2-methyl-1,2,3,4-tetrahydro-isoquinolin-4-yl)-phenyl]-3-methyl-thiourea, Trifluoroacetate] | 
0.318 µM | CN1Cc2c(Cl)cc(Cl)cc2C(c2ccc(O)c(C(=O)O)c2)C1 (stereo not shown) [Example 29, 5-(6,8-Dichloro-2-methyl-1,2,3,4-tetrahydro-isoquinolin-4-yl)-2-hydroxy-benzoic acid] | 
1 µM | CN1Cc2c(Cl)cc(Cl)cc2C(c2ccc(N3CCOCC3)cc2)C1 (stereo not shown) [Example 10, 6,8-Dichloro-2-methyl-4-(4-morpholin-4-yl-phenyl)-1,2,3,4-tetrahydroisoquinoline, Trifluoroacetate] | 
0.25 µM | CCNC(=O)c1ccc(C2CN(C)Cc3c(Cl)cc(Cl)cc32)cc1 (stereo not shown) [Example 7, 4-(6,8-Dichloro-2-methyl-1,2,3,4-tetrahydroisoquinolin-4-yl)-N-ethyl-benzamide, Trifluoroacetate] | 
0.202 µM | CC(=O)N1CCC(C(=O)Nc2cccc(C3CN(C)Cc4c(Cl)cc(Cl)cc43)c2)CC1 (stereo not shown) [Example 60] | 
0.507 µM | CN1Cc2c(Cl)cc(Cl)cc2C(c2cccc(NS(=O)(=O)N(C)C)c2)C1 (stereo not shown) [Example 64] | 
0.279 µM | CN(C)CC(=O)Nc1ccc(C2CN(C)Cc3c(Cl)cc(Cl)cc32)cc1 (stereo not shown) [Example 113] | 
0.024 µM | CN1Cc2c(Cl)cc(Cl)cc2C(c2cccc(NC(=O)c3cn[nH]c3)c2)C1 (stereo not shown) [Example 146] | 

Reference: patent publication US6911453B2 (Aventis Pharma Deutschland GmbH, priority 2001, dated 2005)
